Assay results from article PMC9250534, “Synthesis and direct assay of large macrocycle diversities by combinatorial late-stage modification at picomole scale” (Nature Communications, 2022).
Numbered stars: 1 amine (or outer) side, 2 acyl side, 3 side chain; on linkers, the order of the positions; unused ones are H or OH. Bridge positions count the residues as written; N and C are the ends. Square brackets hold non-standard residues; d marks the D form. Side chains are listed from the residue outwards. Peptide text beside a SMILES is read from it. * marks the point of attachment. ξ: configuration not given here. Propanoyl(3-(4-Cl-Ph)) = O=C(CCc1ccc(Cl)cc1)*; Pyrazinoyl(5-oxo-4H) = O=C(c1c[nH]c(=O)cn1)*; ξNaproxenoyl = COc1ccc2cc(C(C)C(=O)*)ccc2c1; 1,2,3Thiadiazole5CO(4-Me) = Cc1nnsc1C(=O)*; Tetrahydropyran4carbonyl = O=C(C1CCOCC1)*; Phenylacetyl(4-Cl) = O=C(Cc1ccc(Cl)cc1)*; Isoorotoyl = O=C(c1c[nH]c(=O)[nH]c1=O)*; Nicotinoyl(6-OMe) = COc1ccc(C(=O)*)cn1; X11 = O=C(c1cccc(S(F)(F)(F)(F)F)c1)*; Benzoyl(4-Cl) = O=C(c1ccc(Cl)cc1)*; Morpholinoacetyl = O=C(CN1CCOCC1)*; Benzoyl(3-OH) = O=C(c1cccc(O)c1)*; Pyrazinecarbonyl = O=C(c1cnccn1)*; Phenoxyacetyl = O=C(COc1ccccc1)*; Pentanoyl(4-Me) = CC(C)CCC(=O)*; X5 = O=C(c1cc2cc(Cl)ccc2[nH]1)*; X14 = O=C(C1(c2ccccc2)CCCCC1)*; Cysteamide = C(CS[*:3])N[*:1]; X3 = O=C(Cc1c[nH]c2ccccc12)*; Me3Gly = C[N+](C)(C)CC(=O)*; X12 = Cc1nc2ccccn2c1C(=O)*; Isovaleryl = CC(C)CC(=O)*; MeOSuc = COC(=O)CCC(=O)*; Orn = NCCC[C@H](N)C(=O)O; X1 = O=C(/C=C/c1ccccc1)*; X16 = Cc1cc(C(=O)*)ccc1O; X17 = O=C(c1ccc(Br)o1)*; Dap = NC[CH](N)C(=O)O; Bz = O=C(c1ccccc1)*; Mpa = O=C(O)CCS

Biological target: T1, thrombin (Homo sapiens, UniProt P00734)
T1 construct: consists of two polypeptide chains of 36 (light chain) and 259 amino acid
Test: Thrombin inhibition screen of crude macrocycle reactions (residual thrombin activity, fluorogenic substrate Z-Gly-Gly-Arg-AMC)
Assay type: biochemical
Settings: 10 µM macrocycle concentration; crude reactions, Library 1a-l; scaffold AA1-AA2-AA3 combined with 1-16 or '-'
Method: As a proof-of-concept, we screened the macrocycle library for inhibitors against thrombin, which is the central blood coagulation protease and an important therapeutic target. We conducted the screen for thrombin-inhibiting macrocycles in 384-well reaction plates. Briefly, each well contained a unique macrocycle (10 μM), 5 μL of thrombin (2 nM final conc.), and subsequently, 5 µL of a fluorogenic substrate to measure the residual thrombin activity and the extent of protease inhibition.
The assays were performed in 384-well plates using Tris buffer at pH 7.4 (100 mM Tris-Cl, 150 mM NaCl, 10 mM MgCl2, 1 mM CaCl2, 0.1% w/v BSA, 0.01% v/v Triton-X100, and 0.6% v/v DMSO) using thrombin at a final concentration of 2 nM and the fluorogenic substrate Z-Gly-Gly-Arg-AMC at a final concentration of 50 μM. Thrombin (5 μL, 6 nM) in the Tris-Cl buffer described above was added to each peptide using a BioTek MultiFlo microplate dispenser, and incubated for 10 min at room temperature. […] Data was collected and exported using the Tecan Infinite M200 Pro instrument software. […] For the negative controls (20 wells containing DMSO but no macrocycle), an average slope was calculated. The percent of thrombin inhibition was calculated by dividing the slopes and multiplying the results by 100.

| percent residual thrombin activity | Compound |
| --- | --- |
| 106.242% | NC(=O)CC[C@@H]1NC(=O)[C@H](CCCCNC(=O)Cc2c[nH]c3ccccc23)NC(=O)[C@@H]2CCCN2C(=O)CCSSCCNC1=O [B1-D1-Q/12] ([Mpa]PK(X3)Q-Cysteamide; disulfide 1-C) |
| 113.502% | Cc1nnsc1C(=O)NCCCC[C@@H]1NC(=O)[C@@H]2CCCN2C(=O)CCSSCCNC(=O)[C@H](CCC(N)=O)NC1=O [B1-D1-Q/15] ([Mpa]PK(1,2,3Thiadiazole5CO(4-Me))Q-Cysteamide; disulfide 1-C) |
| 107.218% | CC(C)[C@H]1NC(=O)[C@H](CCCCNC(=O)c2ccccc2)NC(=O)[C@@H]2CCCN2C(=O)CCSSCCNC1=O [B1-D1-v/1] ([Mpa]PK(Bz)[dV]-Cysteamide; disulfide 1-C) |
| 115.134% | CC(C)C1NC(=O)C(CCCCNC(=O)c2cnccn2)NC(=O)C2CCCN2C(=O)CCSSCCNC1=O (centres unmarked) [B1-D1-v/2] ([Mpa]PK(Pyrazinecarbonyl)V-Cysteamide; disulfide 1-C; configuration not given here) |
| 112.751% | CC(C)CC(=O)NCCCC[C@@H]1NC(=O)[C@@H]2CCCN2C(=O)CCSSCCNC(=O)[C@@H](C(C)C)NC1=O [B1-D1-v/8] ([Mpa]PK(Isovaleryl)[dV]-Cysteamide; disulfide 1-C) |
| 111.698% | CC(C)[C@H]1NC(=O)[C@H](CCCCNC(=O)c2c[nH]c(=O)cn2)NC(=O)[C@@H]2CCCN2C(=O)CCSSCCNC1=O [B1-D1-v/9] ([Mpa]PK(Pyrazinoyl(5-oxo-4H))[dV]-Cysteamide; disulfide 1-C) |
| 107.398% | COc1ccc(C(=O)NCCCC[C@@H]2NC(=O)[C@@H]3CCCN3C(=O)CCSSCCNC(=O)[C@@H](C(C)C)NC2=O)cn1 [B1-D1-v/10] ([Mpa]PK(Nicotinoyl(6-OMe))[dV]-Cysteamide; disulfide 1-C) |
| 123.844% | CC(C)[C@H]1NC(=O)[C@H](CCCCNC(=O)COc2ccccc2)NC(=O)[C@@H]2CCCN2C(=O)CCSSCCNC1=O [B1-D1-v/13] ([Mpa]PK(Phenoxyacetyl)[dV]-Cysteamide; disulfide 1-C) |
| 114.269% | CC(C)[C@H]1NC(=O)[C@H](CCCCN)NC(=O)[C@@H]2CCCN2C(=O)CCSSCCNC1=O [B1-D1-v/-] ([Mpa]PK[dV]-Cysteamide; disulfide 1-C) |
| 105.697% | O=C(NCCCC[C@@H]1NC(=O)[C@@H]2CCCN2C(=O)CCSSCCNC(=O)[C@@H](Cc2ccc(O)cc2)NC1=O)c1ccccc1 [B1-D1-y/1] ([Mpa]PK(Bz)[dY]-Cysteamide; disulfide 1-C) |
| 107.785% | O=C(NCCCC[C@@H]1NC(=O)[C@@H]2CCCN2C(=O)CCSSCCNC(=O)[C@@H](Cc2ccc(O)cc2)NC1=O)c1c[nH]c(=O)cn1 [B1-D1-y/9] ([Mpa]PK(Pyrazinoyl(5-oxo-4H))[dY]-Cysteamide; disulfide 1-C) |
| 109.958% | COc1ccc(C(=O)NCCCC[C@@H]2NC(=O)[C@@H]3CCCN3C(=O)CCSSCCNC(=O)[C@@H](Cc3ccc(O)cc3)NC2=O)cn1 [B1-D1-y/10] ([Mpa]PK(Nicotinoyl(6-OMe))[dY]-Cysteamide; disulfide 1-C) |
| 110.064% | NC(=O)CC[C@@H]1NC(=O)[C@@H]2CCCN2C(=O)CCSSCCNC(=O)[C@H](CCCNC(=O)c2c[nH]c(=O)[nH]c2=O)NC1=O [B1-Q-D2/11] ([Mpa]PQ[Orn](Isoorotoyl)-Cysteamide; disulfide 1-C) |

Biological target: MDM2 (Homo sapiens, UniProt Q00987)
Sequence (Q00987 whole entry): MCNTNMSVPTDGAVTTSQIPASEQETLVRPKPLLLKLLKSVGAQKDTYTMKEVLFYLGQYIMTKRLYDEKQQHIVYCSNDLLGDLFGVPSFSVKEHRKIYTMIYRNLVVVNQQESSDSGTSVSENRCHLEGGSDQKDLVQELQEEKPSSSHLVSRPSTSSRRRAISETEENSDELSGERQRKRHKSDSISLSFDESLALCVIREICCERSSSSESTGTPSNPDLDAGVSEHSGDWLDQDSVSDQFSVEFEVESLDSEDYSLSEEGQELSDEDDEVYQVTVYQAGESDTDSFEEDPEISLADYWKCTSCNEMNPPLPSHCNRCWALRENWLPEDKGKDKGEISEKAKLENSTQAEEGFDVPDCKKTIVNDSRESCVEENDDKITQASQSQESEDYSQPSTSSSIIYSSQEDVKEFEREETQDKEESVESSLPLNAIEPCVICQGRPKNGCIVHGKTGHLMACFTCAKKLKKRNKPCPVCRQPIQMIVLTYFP
Test: MDM2 binding screen: displacement of fluorescent p53 peptide probe FP53 (fluorescence polarization)
Settings: 10 µM macrocycle concentration; crude acylated macrocycle (scaffold Mpa-AA1-AA2-AA3 x carboxylic acid); p53-based fluorescent peptide, human MDM2
How it was run: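 Macrocycle reaction products at a final 10 µM were tested for displacement of a p53-based fluorescent peptide from human MDM2. Fluorescence anisotropy (ex 485/em 535 nm) was read once per macrocycle at 25 °C.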

| Compound | fraction fluorescent probe displaced |
| --- | --- |
| O=C(NC[C@@H]1NC(=O)[C@@H]2CCCN2C(=O)CCSSCCNC(=O)[C@H](Cc2c[nH]c3ccccc23)NC1=O)c1cccc(S(F)(F)(F)(F)F)c1 [X-B1-D3-W + A19] ([Mpa]P[Dap](X11)W-Cysteamide; disulfide 1-C) | 0.1429 |
| O=C(NC[C@@H]1NC(=O)[C@@H]2CCCN2C(=O)CCSSCCNC(=O)[C@H](Cc2c[nH]c3ccccc23)NC1=O)c1ccc(Br)o1 [X-B1-D3-W + A21] ([Mpa]P[Dap](X17)W-Cysteamide; disulfide 1-C) | 0.2551 |
| O=C(NC[C@@H]1NC(=O)[C@@H]2CCCN2C(=O)CCSSCCNC(=O)[C@H](Cc2c[nH]c3ccccc23)NC1=O)c1ccc(Cl)cc1 [X-B1-D3-W + A25] ([Mpa]P[Dap](Benzoyl(4-Cl))W-Cysteamide; disulfide 1-C) | 0.2195 |
| O=C(NC[C@@H]1NC(=O)[C@@H]2CCCN2C(=O)CCSSCCNC(=O)[C@H](Cc2c[nH]c3ccccc23)NC1=O)c1cccc(O)c1 [X-B1-D3-W + A27] ([Mpa]P[Dap](Benzoyl(3-OH))W-Cysteamide; disulfide 1-C) | 0.1229 |
| Cc1cc(C(=O)NC[C@@H]2NC(=O)[C@@H]3CCCN3C(=O)CCSSCCNC(=O)[C@H](Cc3c[nH]c4ccccc34)NC2=O)ccc1O [X-B1-D3-W + A30] ([Mpa]P[Dap](X16)W-Cysteamide; disulfide 1-C) | 0.08563 |
| O=C(NC[C@@H]1NC(=O)[C@@H]2CCCN2C(=O)CCSSCCNC(=O)[C@H](Cc2c[nH]c3ccccc23)NC1=O)c1cc2cc(Cl)ccc2[nH]1 [X-B1-D3-W + A39] ([Mpa]P[Dap](X5)W-Cysteamide; disulfide 1-C) | 0.06212 |

The next lines start with the values.

| fraction fluorescent probe displaced | Compound |
| --- | --- |
| 0.05096 | O=C(CCc1ccc(Cl)cc1)NC[C@@H]1NC(=O)[C@@H]2CCCN2C(=O)CCSSCCNC(=O)[C@H](Cc2c[nH]c3ccccc23)NC1=O [X-B1-D3-W + A42] ([Mpa]P[Dap](Propanoyl(3-(4-Cl-Ph)))W-Cysteamide; disulfide 1-C) |
| 0.01122 | O=C(NC[C@@H]1NC(=O)[C@@H]2CCCN2C(=O)CCSSCCNC(=O)[C@H](Cc2c[nH]c3ccccc23)NC1=O)C1CCOCC1 [X-B1-D3-W + A44] ([Mpa]P[Dap](Tetrahydropyran4carbonyl)W-Cysteamide; disulfide 1-C) |
| 0.08387 | O=C(Cc1ccc(Cl)cc1)NC[C@@H]1NC(=O)[C@@H]2CCCN2C(=O)CCSSCCNC(=O)[C@H](Cc2c[nH]c3ccccc23)NC1=O [X-B1-D3-W + A45] ([Mpa]P[Dap](Phenylacetyl(4-Cl))W-Cysteamide; disulfide 1-C) |
| 0.006636 | Cc1nc2ccccn2c1C(=O)NC[C@@H]1NC(=O)[C@@H]2CCCN2C(=O)CCSSCCNC(=O)[C@H](Cc2c[nH]c3ccccc23)NC1=O [X-B1-D3-W + A61] ([Mpa]P[Dap](X12)W-Cysteamide; disulfide 1-C) |
| 0.03922 | O=C(CN1CCOCC1)NC[C@@H]1NC(=O)[C@@H]2CCCN2C(=O)CCSSCCNC(=O)[C@H](Cc2c[nH]c3ccccc23)NC1=O [X-B1-D3-W + A63] ([Mpa]P[Dap](Morpholinoacetyl)W-Cysteamide; disulfide 1-C) |
| -0.02228 | CC(C)CCC(=O)NC[C@@H]1NC(=O)[C@@H]2CCCN2C(=O)CCSSCCNC(=O)[C@H](Cc2c[nH]c3ccccc23)NC1=O [X-B1-D3-W + A68] ([Mpa]P[Dap](Pentanoyl(4-Me))W-Cysteamide; disulfide 1-C) |
| 0.1654 | CC(=O)NCC(=O)NC[C@@H]1NC(=O)[C@@H]2CCCN2C(=O)CCSSCCNC(=O)[C@H](Cc2c[nH]c3ccccc23)NC1=O [X-B1-D3-W + A83] ([Mpa]P[Dap]([Gly-Ac])W-Cysteamide; disulfide 1-C) |
| 0.1099 | O=C(/C=C/c1ccccc1)NC[C@@H]1NC(=O)[C@@H]2CCCN2C(=O)CCSSCCNC(=O)[C@H](Cc2c[nH]c3ccccc23)NC1=O [X-B1-D3-W + A91] ([Mpa]P[Dap](X1)W-Cysteamide; disulfide 1-C) |
| -0.1286 | C[N+](C)(C)CC(=O)NC[C@@H]1NC(=O)[C@@H]2CCCN2C(=O)CCSSCCNC(=O)[C@H](Cc2c[nH]c3ccccc23)NC1=O [X-B1-D3-W + A92] ([Mpa]P[Dap](Me3Gly)W-Cysteamide; disulfide 1-C) |
| 0.1339 | COC(=O)CCC(=O)NC[C@@H]1NC(=O)[C@@H]2CCCN2C(=O)CCSSCCNC(=O)[C@H](Cc2c[nH]c3ccccc23)NC1=O [X-B1-D3-W + A93] ([Mpa]P[Dap](MeOSuc)W-Cysteamide; disulfide 1-C) |
| 0.005277 | COc1ccc2cc(C(C)C(=O)NCC3NC(=O)C4CCCN4C(=O)CCSSCCNC(=O)C(Cc4c[nH]c5ccccc45)NC3=O)ccc2c1 (centres unmarked) [X-B1-D3-W + A97] ([Mpa]P[Dap](ξNaproxenoyl)W-Cysteamide; disulfide 1-C; configuration not given here) |
| 0.6683 | O=C1NCCSSCCC(=O)N2CCC[C@H]2C(=O)N[C@@H](CNC(=O)C2(c3ccccc3)CCCCC2)C(=O)N[C@H]1Cc1c[nH]c2ccccc12 [X-B1-D3-W + A98] ([Mpa]P[Dap](X14)W-Cysteamide; disulfide 1-C) |
| 0.1075 | NC[C@@H]1NC(=O)[C@@H]2CCCN2C(=O)CCSSCCNC(=O)[C@H](Cc2c[nH]c3ccccc23)NC1=O [X-B1-D3-W + No Acid] ([Mpa]P[Dap]W-Cysteamide; disulfide 1-C) |
